# Laboratory results: patent US20250064773A1, “TARGETING ERO1 ALPHA WITH AURONE DERIVATIVES” (West Virginia University Board of Governors on behalf of …, priority 2021, published 2025)
# Entries after “also recorded” stand apart in the source; their conditions may differ.
# System: PC-9 cells
# Assay: Soft agar clonogenic assay, PC-9
# Format: cell-based
# Conditions: 14 days, 3.75-15 μM
# Description: We utilized an MTT assay to determine the potency of the compounds for inhibiting cell growth. […] We next asked whether T151742 induced inhibition of cell growth was dependent on ERO1α expression. As shown in FIG. 6C two ERO1α deleted clones in the PC-9 cell line were isolated. Using an MTT assay to determine overall cellar viability, a non-targeted control (scramble), and both ERO1α knockout clones was subjected to treatment with T151742 for 72 hours (See FIG. 6D). […] Though only slight differences were observed between T151742 and EN-460 we tested the effects of these compounds in a clonogenic assay which is a better test for inhibition of self-renewal.
# FIG. 7A and FIG. 7B show 1000 cells/well were plated in a 12-well plate in triplicate with either 0.5% DMSO, T151742, or EN-460 and allowed to form colonies for 14 days. Colonies were subsequently stained with 0.01% Crystal Violet, imaged, and quantified using ImageJ. […] Colonies were stained with 0.01% Crystal Violet, imaged, and quantified using ImageJ.
# Cell Lines: PC-9 cell line used was obtained from Sigma Aldrich and grown in RPMI 1640 medium with 10% fetal bovine serum and 1% penicillin/streptomycin. […] Plate was then read on the BioTek Cytation 5 at 530/590 nm. […] Plate was then read at 570 nm. […] Images were then quantified using ImageJ. […]
smiles,measurement,value
CN(C)c1ccc(/C=C2\Oc3cc(O)ccc3C2=O)cc1 [Compound T151742],activity in clonogenicity assay (colony number),retained activity; also recorded: significantly more potent at reducing colony number
